Data published in patent US10208068B2, “Macrocycles as factor XIa inhibitors” (BRISTOL-MYERS SQUIBB COMPANY, priority 2011, dated 2019).
“And” between values parts separate entries of the source, which are not always exact repeats. Identical values can stand only once. Like-named read-outs stand apart in the source and are kept apart here.

Settings: 12-membered ring

COC(=O)Nc1ccc2c(c1)NC(=O)C(C)C=CC[C@H](NC(=O)OC(C)(C)C)c1cc-2cc(=O)[nH]1 (stereo partly shown)
ring closure, yield after HPLC (from C=CC[C@H](NC(=O)OC(C)(C)C)c1cc(-c2ccc(NC(=O)OC)cc2NC(=O)C(C)C=C)cc(=O)[nH]1, rcm bond, Grubbs II (0.4 eq), microwave, DCE, 18.0 mM, 120.0 °C, 0.5 h): 19% and 35%

COC(=O)Nc1ccc2c(c1)NC(=O)CCOC[C@H](NC(=O)OC(C)(C)C)c1nc-2cn1COCC[Si](C)(C)C
ring closure, yield after HPLC (from COC(=O)Nc1ccc(-c2cn(COCC[Si](C)(C)C)c([C@H](COCCC(=O)O)NC(=O)OC(C)(C)C)n2)c(N)c1, amide bond, BOP/DMAP/DIEA, DMF, 1.0 mM, 25.0 °C, 16.0 h): 75%

COC(=O)Nc1ccc2c(c1)NC(=O)COCC[C@H](NC(=O)OCc1ccccc1)c1cc-2ccn1
ring closure, yield after HPLC (from COC(=O)Nc1ccc(-c2ccnc([C@H](CCOCC(=O)O)NC(=O)OCc3ccccc3)c2)c(N)c1, amide bond, BOP/DMAP/DIEA, DCM/DMF, 2.8 mM, 25.0 °C, 6.0 h): 27%

COC(=O)Nc1ccc2c(c1)NC(=O)[C@H](C)CCC[C@H](NC(=O)OC(C)(C)C)c1nc-2cn1COCC[Si](C)(C)C
ring closure, yield after HPLC (from COC(=O)Nc1ccc(-c2cn(COCC[Si](C)(C)C)c([C@H](CCCC(C)C(=O)O)NC(=O)OC(C)(C)C)n2)c(N)c1, amide bond, BOP/DMAP/DIEA, DCM/DMF, 3.4 mM, 50.0 °C, 96.0 h): 22%
